Results reported in patent US20160193179A1, “Treatment of Cardiovascular Risk in Diabetic Patients” (EVOLVA SA, priority 2012, published 2016).

Key:
[1] = system: VCAM-1 and ICAM-1 protein expression in HUVEC; test: Western blot of VCAM-1 and ICAM-1 protein expression induced by TNFα in HUVEC; type: cell-based, human; conditions: TNFα 6 h, western blot normalised by β-actin
Description: FIGS. 2B and 2C show the effect of Compound 3 on VCAM-1 and ICAM-1 protein expression induced by TNFα in HUVEC after 6 h of incubation. B) Total protein extracts are recovered and analysed by western blot. β-actin serves as the loading control. C) Quantification of optical density of each band. Results are expressed as the ratio between the optical density of VCAM-1 or ICAM-1 and the optical density of β-actin.
HUVEC are seeded at 187,500 cells/flask in gelatin-coated T75 in EGM. After 4 days, cell medium is replaced by EBM containing or not containing Compound 3 at different concentrations. After 1 h of preincubation, 1 ng/ml TNFα is added or is not added into the T75 flasks. 6 h after, cell media are collected and centrifuged at 500 g for 5 min to pellet and pool floating cells with adherent cells. Adherent cells are washed twice with cold PBS and are collected in 1.5 ml of PBS. Harvested cells are then centrifuged at 500 g for 5 min at 4° C. […] Protein concentration is measured using Pierce method (Pierce 660 nm protein assay, Thermoscientific, USA) with the Ionic Detergent Compatibility Reagent (Thermoscientific, USA). […] Antibody binding was analysed with the scanner Odyssey Image System (Li-COR, Biosciences, USA) and Odyssey V3.0 software. Optical density of each band is also determined by using the software.

[2] = system: 6-keto PGF1α secretion by HUVEC; test: 6-keto PGF1α EIA, secretion by HUVEC; type: cell-based, human; conditions: HUVEC 6 h
Description: 6-ketoPGF1α secretion is evaluated using a specific EIA assay. Results are expressed in picograms of 6-ketoPGF1α reported to micrograms of proteins measured by the Folin method on cell lysates. Data are means±S.D. (n=3). Statistical analysis: one way ANOVA followed by Bonferroni, Versus CTL, * p<0.05.
HUVEC are seeded at 25,000 cells/well on gelatin-coated 24-well plate (Corning) in EGM. After 48 h, cell medium is replaced by EBM containing or not containing Compound 3 at different concentrations. After 1 h of preincubation, 1 ng/ml TNFα is added or is not added to the wells. 6 h after adding TNFα, medium of each well is collected and cell lysis is performed in NaOH 0.5 N for 30 min. PTX3 secretion in the incubation medium is assayed using specific ELISAs (#DPTX30, Quantikine, R&D Systems, USA) according to the procedure provided by the supplier. 6-ketoPGF1α levels in cell culture media are determined using a competitive assay (#515211, Cayman, USA). Results are expressed in picograms of PTX3 or 6-ketoPGF1α reported to micrograms of proteins measured by the Folin method (Folin-Ciocalteu's phenol reagent, Merck, Germany) in cell lysates.

[3] = system: human coronary artery smooth muscle cells; test: Human coronary artery smooth muscle cell proliferation (WST-1); type: cell-based; conditions: growth factor media; Compound 3 50 nM, 500 nM, 5 μM added 1 h before U46619; 48 h; WST-1
Description: Human coronary artery SMC is cultured in SmGM2 kit medium. At 80% confluence, the SMCs are trypsinized and resuspended in either DMEM supplemented with 2% FCS (“low serum media”), or in SmGM2 kit medium containing 5% FCS, 2 ng/ml FGF, 0.5 ng/ml EGF, 5 μg/ml insulin (“growth factor media”). Subsequently, 5000 cells in 200 μL are added to each well in a 96-well plate and left to adhere overnight. Either vehicle or Compound 3 (50 nM, 500 nM, 5 μM) is added to the wells 1 h before U 46619 at different concentrations (0.1 nM to 10 μM) and incubated for another 48 h. All experiments are repeated 3-5 times for each experimental condition.
Cell proliferation is evaluated using WST-1 reagent according to the manufacturer's instructions. In brief, after replacement of phenol red containing media by 200 μL transparent serum-supplemented DMEM, 10 μL of diluted WST-1 reagent is added to each well at the end of the 48 h incubation period. After 1 h incubation at 37° C., the absorbance of the formazan dye formed is measured at 440 nm using a microplate reader.
All results are expressed as mean±SE. Statistically significant differences are determined by a one-way analysis of variances, followed by Holm-Sidak post hoc test, for multiple comparisons, using Sigma Stat software. A P value of less than 0.05 is considered significant.

CC(C)(C)N.O=C(O)CC/C=C\C[C@@H]1CO[C@H](c2ccccc2Cl)O[C@@H]1c1ccccc1O [Compound 3, tert-butylammonium (Z)-6-((2S,4S,5R)-2-(2-chlorophenyl)-4-(2-hydroxyphenyl)-1,3-dioxan-5-yl)hex-4-enoate]
ICAM-1 protein expression induced by TNFα [1]: no effect | VCAM-1 protein expression induced by TNFα [1]: no effect | 6-keto PGF1α secretion ([2]; 600 nM Compound 3 together with 1 ng/ml TNFα): significant increase | 6-keto PGF1α secretion ([2]; Compound 3 alone, without TNFα): do not increase | SMC proliferation induced by U46619 [3]: significantly and concentration-dependently inhibits
